Laboratory results from a melting point compilation (Tetko et al.).

Q: For `CC(=O)OCC1OC(c2nn[nH]n2)C(N2C(=O)c3ccccc3C2=O)C(OC(C)=O)C1OC(C)=O` (configuration not stated), which melting point is on record?
A: Its melting point is 98 °C.

Q: With `NC(CCS)C(=O)O` (configuration not stated) as the molecule, how does the melting point read?
A: The melting point was 232 °C.

Q: With `Nc1ccc(C(F)(F)F)cc1Br` as the molecule, how does the melting point read?
A: The melting point was 29.5 °C.

Q: Which melting point does the source give for `O=C(c1ccc(F)cc1)C1CCN(CCn2c(=O)[nH]c3ccccc3c2=O)CC1` here?
A: Its melting point is 231 °C.

Q: Which melting point does the source give for `Cc1cc(C)c(CC(O)c2cc3ccccc3o2)c(C)c1` (configuration not stated) here?
A: The melting point was 75 to 76 °C.

Q: Which melting point does the source give for `CC1CCC(C)(COC(=O)c2ccccc2C(=O)OCC2(C)CCC(C)C2(C)C)C1(C)C` (configuration not stated) here?
A: The melting point was 80 °C.

Q: For `COc1ccc2c(=O)n3c(cc2c1)CCCC3`, which melting point is on record?
A: Its melting point is 80 °C.

Q: For `COc1ccc(N/N=C2\C(=O)N(CO)N=C2C(F)(F)F)cc1`, which melting point is on record?
A: The melting point was 142 °C.

Q: With `CCS(=O)(=O)c1nnc(N(C)C(=O)NC)s1` as the molecule, how does the melting point read?
A: The melting point was 156 °C.

Q: With `O=C(O)c1cccc(-n2ccnc2)c1` as the molecule, how does the melting point read?
A: Its melting point is 194 to 199 °C.

Q: For `O=C(O)c1cccc(Oc2ccccn2)c1`, which melting point is on record?
A: The melting point was 108 to 112 °C.

Q: With `CCC(=O)Oc1ccccc1` as the molecule, how does the melting point read?
A: Its melting point is 20 °C.

Q: For `O=C1OC2(c3cc(Cl)c(O)cc3Oc3cc(O)c(Cl)cc32)c2ccccc21`, which melting point is on record?
A: The melting point was 280 °C.

Q: Which melting point does the source give for `Cc1ncsc1C(=O)O` here?
A: The melting point was 254 to 255 °C.

Q: With `N#Cc1cnc(Br)nc1N` as the molecule, how does the melting point read?
A: The melting point was 250 °C.

Q: With `CCCCc1ccc(NC(=O)c2ccc(CC)cc2)cc1` as the molecule, how does the melting point read?
A: The melting point was 117 °C.

Q: Which melting point does the source give for `Cc1cccc(C)c1NC(=O)CCl` here?
A: Its melting point is 148 °C.

Q: With `CSc1cc(-c2ccc3ccccc3c2)c2c(=O)n(-c3ccccc3)n(C)c2c1` as the molecule, how does the melting point read?
A: Its melting point is 179 °C.

Q: Which melting point does the source give for `CC(=O)C(C(C)=O)=C1SC2=C(C(=O)c3ccccc3C2=O)N1c1ccccc1` here?
A: Its melting point is 254 °C.

Q: With `COc1cc(-c2nnc3n2N=C(C(C)C)CS3)cc(OC)c1OC` as the molecule, how does the melting point read?
A: The melting point was 157 °C.

Q: For `O=C(Nc1ccccc1Br)Nc1ccccc1Br`, which melting point is on record?
A: The melting point was 235 to 237 °C.

Q: With `COc1cc(CC(=O)O)cc(Br)c1O` as the molecule, how does the melting point read?
A: The melting point was 183 to 185 °C.

Q: Which melting point does the source give for `CC1CCC2(OC1)OC1CC3C4CC=C5CC(O)CCC5(C)C4CCC3(C)C1C2C` (configuration not stated) here?
A: The melting point was 206 °C.

Q: Which melting point does the source give for `Cc1ccc(C(=O)O)o1` here?
A: Its melting point is 110 °C.

Q: Which melting point does the source give for `CCOC(=O)NC(=O)Nn1c(S)nnc1C(F)(F)F` here?
A: Its melting point is 232 °C.

Q: Which melting point does the source give for `CC(C)(C)OC(=O)N1CCN(c2ccc(C=O)cc2)CC1` here?
A: Its melting point is 118 to 119 °C.

Q: For `ON=CNc1ccc(Cl)nn1`, which melting point is on record?
A: The melting point was 207 to 211 °C.

Q: For `Oc1cccc(Cl)c1O`, which melting point is on record?
A: The melting point was 48.5 °C.

Q: For `Cn1c(CO)cc2occc21`, which melting point is on record?
A: Its melting point is 74 to 76 °C.

Q: Which melting point does the source give for `Cc1nn(C)c(Cl)c1C=O` here?
A: Its melting point is 78 to 79 °C.

Q: For `N#Cc1ccc(C(Cl)=Cc2ccc(C=C(Cl)c3ccc(C#N)cc3[N+](=O)[O-])cc2)c([N+](=O)[O-])c1`, which melting point is on record?
A: The melting point was 296 °C.

Q: Which melting point does the source give for `O=[N+]([O-])c1cc(O)c(Cl)cc1Cl` here?
A: The melting point was 100 °C.

Q: For `CC(=O)Nc1ccc(C2=NN(c3ccccc3)C(=O)/C2=C/C2C(=O)N(c3ccccc3)N=C2c2ccc(NC(C)=O)cc2)cc1` (configuration not stated), which melting point is on record?
A: The melting point was 317 °C.

Q: Which melting point does the source give for `COC1CC2C3(C)CCCC2(COC3O)C2C(OC(C)=O)CC3C(C)C(=O)C12C3O` (configuration not stated) here?
A: Its melting point is 200 °C.

Q: With `S=C(Oc1ccccc1)Oc1ccccc1` as the molecule, how does the melting point read?
A: The melting point was 106 °C.

Q: With `Nc1ccc(Oc2ccccc2)nc1` as the molecule, how does the melting point read?
A: The melting point was 71 to 72 °C.

Q: Which melting point does the source give for `NC(=O)CCOC1CCN(Cc2ccccc2)CC1` here?
A: The melting point was 73 to 75 °C.

Q: Which melting point does the source give for `O=c1c(Br)c(Br)cnn1-c1ccccc1` here?
A: Its melting point is 143 to 144 °C.

Q: With `CCOC(=O)C1=C(C)OC(N)=C(C#N)C1c1ccccc1` (configuration not stated) as the molecule, how does the melting point read?
A: The melting point was 189 to 190 °C.

Q: Which melting point does the source give for `Cc1cc(O)c(Cl)c(C)c1Cl` here?
A: Its melting point is 95.5 °C.

Q: With `Oc1c(Br)c(Br)c(O)c(Br)c1Br` as the molecule, how does the melting point read?
A: Its melting point is 255 to 260 °C.

Q: For `NS(=O)(=O)c1ccc(N2C(=O)CC(c3ccccc3)C2=O)c(Cl)c1` (configuration not stated), which melting point is on record?
A: The melting point was 206 °C.

Q: Which melting point does the source give for `CCOCCOC(=O)c1ccccc1C(=O)OCCOCC` here?
A: Its melting point is 34 °C.

Q: For `NC(=O)/C(=N\Nc1cc(Cl)c(Cl)cc1Cl)c1nc2ccccc2s1`, which melting point is on record?
A: Its melting point is 236 °C.

Q: Which melting point does the source give for `C=C1C2CC(C(=C(c3ccccc3)c3ccccc3)C2c2ccccc2)C1(C)C` (configuration not stated) here?
A: Its melting point is 115 °C.

Q: Which melting point does the source give for `Cc1cncc(Oc2cccc(Br)c2)n1` here?
A: The melting point was 38 to 39.5 °C.

Q: With `C=Cc1ccc(I)cc1` as the molecule, how does the melting point read?
A: The melting point was 44 °C.

Q: For `OCC1CCNCC1`, which melting point is on record?
A: Its melting point is 59 °C.

Q: For `CC(=O)Oc1ccccc1C(=O)OCC(=O)N(C)CC(N)=O`, which melting point is on record?
A: Its melting point is 132 °C.

Q: Which melting point does the source give for `CCOC(=O)C(C#N)=NNc1ccccc1[N+](=O)[O-]` here?
A: The melting point was 102 to 103 °C.

Q: With `COc1ccc(C(C)=O)cc1Cl` as the molecule, how does the melting point read?
A: The melting point was 75 °C.

Q: For `Cc1ccc(C(=O)O)cc1I`, which melting point is on record?
A: Its melting point is 208 °C.

Q: For `CCCCCCCCC(O)CCCCCCCC`, which melting point is on record?
A: Its melting point is 61 °C.

Q: With `O=CC1CC=CCC1` (configuration not stated) as the molecule, how does the melting point read?
A: Its melting point is 2 °C.

Q: With `O=C(O)c1ccnnc1` as the molecule, how does the melting point read?
A: Its melting point is 237 to 240 °C.

Q: With `Nc1cc(F)c(Br)cc1F` as the molecule, how does the melting point read?
A: The melting point was 75 °C.

Q: For `Cc1ccc(C(=O)N(C)C)cc1`, which melting point is on record?
A: The melting point was 41 °C.

Q: With `CC(C)(C)c1cc2c(O)c(c1)Cc1cc(C(C)(C)C)cc(c1O)Cc1cc(C(C)(C)C)cc(c1O)Cc1cc(C(C)(C)C)cc(c1O)Cc1cc(C(C)(C)C)cc(c1O)C2` as the molecule, how does the melting point read?
A: Its melting point is 310 to 312 °C.

Q: Which melting point does the source give for `O=[N+]([O-])c1ccc(-c2nnc3n2CN(c2ccccc2[N+](=O)[O-])CS3)cc1` here?
A: The melting point was 183 to 185 °C.

Q: With `CCCCCCCCCCCCCCCCCC(=O)OC1CCC2(C)C(=CCC3C2CCC2(C)C(C(C)CCCC(C)C)CCC32)C1` (configuration not stated) as the molecule, how does the melting point read?
A: The melting point was 79 to 83 °C.

Q: Which melting point does the source give for `OCc1cccnc1N1CCOCC1` here?
A: Its melting point is 80 to 83 °C.

Q: For `O=C1OCCOC(=O)C2CCCCC2C(=O)OCCOC(=O)C2CCCCC12` (configuration not stated), which melting point is on record?
A: Its melting point is 210 °C.

Q: With `CN1C(=O)CN=C(c2ccccc2F)c2cc([N+](=O)[O-])ccc21` as the molecule, how does the melting point read?
A: Its melting point is 166 °C.

Q: With `CSC(SC)SC` as the molecule, how does the melting point read?
A: Its melting point is 16 °C.

Q: With `CCOC(=O)C(C#N)=Cc1ccccc1Cl` as the molecule, how does the melting point read?
A: Its melting point is 88 °C.

Q: Which melting point does the source give for `CC(C)C12CCC(C)(CC1)O2` here?
A: The melting point was 1 °C.

Q: With `N#CCc1ccc(C(F)(F)F)cc1[N+](=O)[O-]` as the molecule, how does the melting point read?
A: Its melting point is 40 °C.

Q: Which melting point does the source give for `Cc1ccc(C=C2C(=O)NN=C2c2c(O)c3ccccc3n(C)c2=O)cc1` here?
A: Its melting point is 280 °C.

Q: With `Nc1c(Cl)cc(C(F)(F)F)cc1Cl` as the molecule, how does the melting point read?
A: Its melting point is 36 °C.

Q: For `CN(C)c1ccc(C(=O)NN)cc1`, which melting point is on record?
A: Its melting point is 175 °C.

Q: Which melting point does the source give for `O=S(=O)(Cl)c1ccc(Br)cc1Cl` here?
A: The melting point was 79 °C.

Q: With `O=C(CCl)c1ccc(O)c(O)c1` as the molecule, how does the melting point read?
A: Its melting point is 174 °C.

Q: With `O=C(O)c1ccc(-c2ccco2)cc1` as the molecule, how does the melting point read?
A: Its melting point is 231 to 232 °C.

Q: For `FC(F)(F)C(F)(F)N(C(F)(F)C(F)(F)F)C(F)(F)C(F)(F)F`, which melting point is on record?
A: Its melting point is -110 °C.

Q: Which melting point does the source give for `CCC(C)(C)c1ccc(O)cc1` here?
A: The melting point was 95 °C.

Q: Which melting point does the source give for `CC1(C)CC(C(=O)Oc2ccc([N+](=O)[O-])cc2)C(C)(C)N1O` (configuration not stated) here?
A: The melting point was 77 to 80 °C.

Q: For `COc1cc(-c2ccccc2)c(C)cc1N`, which melting point is on record?
A: Its melting point is 65 to 67 °C.

Q: For `COC(=O)C1=C(C)NC(C)=C(C(=O)OC)C1c1ccco1`, which melting point is on record?
A: The melting point was 186 °C.

Q: Which melting point does the source give for `Oc1c(Cl)cccc1-c1ccccc1` here?
A: Its melting point is 6 °C.

Q: With `NNC(=O)c1cnn(-c2ccccc2)c1C(F)(F)F` as the molecule, how does the melting point read?
A: The melting point was 153 to 155 °C.

Q: For `COc1ccc2c(c1)CC1(CCC(O)(c3ccc(C(C)(C)C)cc3)CC1)C2=O` (configuration not stated), which melting point is on record?
A: The melting point was 183 to 184 °C.

Q: With `N#CC(=Cc1cccs1)c1nc2ccccc2s1` as the molecule, how does the melting point read?
A: Its melting point is 148 °C.

Q: Which melting point does the source give for `C[C@@](O)(CC(=O)O)C(=O)O` here?
A: Its melting point is 107 to 111 °C.

Q: With `Cc1ccccc1NC(=O)C(C)(C)C` as the molecule, how does the melting point read?
A: The melting point was 111 to 115 °C.

Q: For `COc1ccc(C(N)=S)cc1`, which melting point is on record?
A: The melting point was 148 to 152 °C.

Q: For `CCOC(=O)c1cnn(-c2ccc(N)cc2)c1C`, which melting point is on record?
A: The melting point was 91 to 92 °C.

Q: For `CCOC(=O)c1c(-c2ccc(C)c(C)c2)csc1N`, which melting point is on record?
A: Its melting point is 82 °C.
